The numbers were not newly measured in patent US20240261298A1, “METHODS OF TREATING DEPRESSION AND ANXIETY” (Woolsey Pharmaceuticals, Inc., priority 2021, published 2024), which cites them from elsewhere.

Molecules are shown by their SMILES. Counter-ions that a name gives are not always drawn.

One data set has as its system adult mice. As to conditions: exposure to fasudil.
For data set [1] the following is noted: 1 hydroxy (M3) metabolite, in vivo.

As for `O=S(=O)(c1cccc2cnccc12)N1CCCNCC1` [Fasudil, Hexahydro-1-(5-isoquinolinesulfonyl)-1H-1,4-diazepine monohydrochloride hemihydrate], in the data set with adult mice, the anxiety-like behaviors entry is “induces anxiety-like behaviors”. As to `O=S(=O)(c1cccc2c(O)nccc12)N1CCCNCC1` [M3], in data set [1], the half-life result was “about 8 hours”.
